From patent US11964021B2, “Bacterially derived, intact minicells for delivery of therapeutic agents to brain tumors” (EnGeneIC Molecular Delivery Pty Ltd, priority 2011, dated 2024)

Columns and labels:
[1] = test system: Canine brain tumor cells BCD-1, -8, -9 and J3T; assay: MTS cell proliferation assay, doxorubicin sensitivity, canine cells; format: cell-based; conditions: 1.7 nM to 8,600 nM, 72 hours
Protocol: (§1) Canine brain tumor cells BCD-1, -8, -9 and J3T and human brain tumor cell line U87-MG were seeded into 96 well plates at 5×10^3 cells per well. Cells were incubated overnight at 37° C., 5% CO2.
(§2) Doxorubicin was added to cells in […], of relevant media containing serum at concentrations ranging from 1.7 nM to 8,600 nM and incubated for 72 hours.
(§3) To measure the cytotoxic effect of Doxorubicin an MTS cell proliferation assay was performed. To each well 20 uL of MTS solution (CellTitre 96® Aqueous One MTS reagent—Promega) was added and incubated in the dark for 30 minutes. Absorbance was read at a wavelength of 490 nm. Data was analysed in Prism GraphPad (La Jolla, CA, USA) using non-linear regression and a 4-parameter curve fit.

[2] = kinetics, FIG. 2A of MacDiarmid et al. Cancer Cell (2007); cited from earlier work
[3] = test system: human brain tumor cell line U87-MG; assay: MTS cell proliferation assay, doxorubicin sensitivity, human cells; format: cell-based; conditions: 1.7 nM to 8,600 nM, 72 hours
Protocol: as §1, §2, §3

COc1cccc2c1C(=O)c1c(O)c3c(c(O)c1C2=O)C[C@@](O)(C(=O)CO)C[C@@H]3O[C@H]1C[C@H](N)[C@H](O)[C@H](C)O1 [doxorubicin, Doxorubicin]
sensitivity of cells to doxorubicin [1]: equally sensitive
leakage of drug out of intact minicells once packaged [2]: did not leak out
sensitivity of cells to doxorubicin [3]: equally sensitive

N.N.[Cl][Pt][Cl] [cisplatin, Cisplatin]
leakage of drug out of intact minicells once packaged [2]: did not leak out
